Results on 21 compounds are retold here after patent US8901118B2, “Compounds and methods for kinase modulation, and indications therefor” (Plexxikon Inc., priority 2010, dated 2014).

One test deals with Fms kinase (Homo sapiens, UniProt P07333). Nature of the test: Fms kinase biochemical activity assay (AlphaScreen, biotin-(E4Y)10 phosphorylation). The note with it: 100 μM ATP; read-out: Biochemical Inhibition IC50 Fms. An outline of the steps:
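Fms kinase (1 ng/well) phosphorylating 30 nM biotin-(E4Y)10 with 100 μM ATP in 25 mM Hepes pH 7.5, MgCl2/MnCl2, 5% DMSO, 20 min at 30 °C. Phosphotyrosine detected by AlphaScreen streptavidin donor and PY20 acceptor beads; IC50 from signal versus compound concentration.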
(In general: Alpha assays give light when donor and acceptor beads are brought close together.)

In the next test the target is T1, Flt-3 kinase (Homo sapiens, UniProt P36888).
T1 sequence (P36888 27-993): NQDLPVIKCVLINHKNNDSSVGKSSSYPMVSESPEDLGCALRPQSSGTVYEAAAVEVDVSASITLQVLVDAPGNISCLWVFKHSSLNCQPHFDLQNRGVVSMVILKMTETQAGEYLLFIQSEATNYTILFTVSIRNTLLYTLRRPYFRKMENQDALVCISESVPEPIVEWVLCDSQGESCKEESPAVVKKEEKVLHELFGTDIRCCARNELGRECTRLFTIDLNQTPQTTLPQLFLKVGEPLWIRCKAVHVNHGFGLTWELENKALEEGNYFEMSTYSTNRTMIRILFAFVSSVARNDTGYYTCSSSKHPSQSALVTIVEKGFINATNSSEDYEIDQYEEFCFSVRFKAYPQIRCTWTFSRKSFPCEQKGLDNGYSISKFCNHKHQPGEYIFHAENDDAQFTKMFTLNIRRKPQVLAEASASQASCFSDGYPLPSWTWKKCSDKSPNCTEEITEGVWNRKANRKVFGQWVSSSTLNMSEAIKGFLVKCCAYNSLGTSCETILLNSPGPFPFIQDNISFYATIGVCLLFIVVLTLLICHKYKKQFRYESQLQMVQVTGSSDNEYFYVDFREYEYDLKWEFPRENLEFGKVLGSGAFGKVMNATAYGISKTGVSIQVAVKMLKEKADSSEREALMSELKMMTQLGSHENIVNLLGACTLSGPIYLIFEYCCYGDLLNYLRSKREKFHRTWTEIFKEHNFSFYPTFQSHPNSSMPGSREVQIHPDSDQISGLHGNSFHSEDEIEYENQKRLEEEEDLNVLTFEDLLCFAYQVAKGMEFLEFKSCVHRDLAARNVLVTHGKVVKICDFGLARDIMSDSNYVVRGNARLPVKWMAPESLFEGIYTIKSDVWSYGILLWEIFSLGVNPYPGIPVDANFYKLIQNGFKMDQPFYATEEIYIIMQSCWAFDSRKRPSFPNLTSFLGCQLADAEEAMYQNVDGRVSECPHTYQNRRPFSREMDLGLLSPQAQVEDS
The experiment in a line: Flt-3 kinase biochemical activity assay (AlphaScreen). The note with it: 100 μM ATP; read-out: Biochemical Inhibition IC50 Flt3. The method, then: In one assay the biochemical activity IC50 values are determined with respect to inhibition of Flt-3 kinase activity, where inhibition of phosphorylation of a peptide substrate is measured as a function of compound concentration. Compounds to be tested, dissolved in DMSO (1 μL), are added to a white 384-well plate (Costar #3705). Working stocks of Flt-3 kinase (Invitrogen), biotin-(E4Y)10 substrate (Upstate Biotech, Cat#12-440), and ATP (Sigma, Cat#A-3377) are prepared in 25 mM Hepes pH 7.5, 5 mM MgCl2, 5 mM MnCl2, 1 mM DTT, and 0.01% Tween-20. All components are added to the 384-well plate for a final concentration of 1 ng/well Flt-3, 30 nM biotin-(E4Y)10 and 100 μM ATP in a volume of 20 μL. Each sample is at 5% DMSO. The plate is then incubated for 1 hour at room temperature. Just before use, working stocks of donor and acceptor beads from the AlphaScreen PY20 Detection Kit (PerkinElmer, Cat#676601M) are prepared in 25 mM Hepes pH 7.5, pH 7.4, 100 mM EDTA. 0.3% BSA. To stop the reaction, the plate is uncovered in the dark and 5 μL of Donor Beads solution (Streptavidin beads) is added to each well. The plate is incubated at room temperature for 20 minutes. Five microliters of Acceptor Beads solution (PY20 coated beads) are then added to each well. The final concentration of each bead is 10 μg/mL. The plates are incubated at room temperature for 60 minutes. Fluorescence signal is recorded on the Envision reader. Phosphorylated substrate results in binding of the PY20 antibody and association of the donor and acceptor beads such that signal correlates with kinase activity. The signal vs. compound concentration is used to determine the IC50.

The structures appear in SMILES notation.

Fms kinase, sequence (P07333 20-972): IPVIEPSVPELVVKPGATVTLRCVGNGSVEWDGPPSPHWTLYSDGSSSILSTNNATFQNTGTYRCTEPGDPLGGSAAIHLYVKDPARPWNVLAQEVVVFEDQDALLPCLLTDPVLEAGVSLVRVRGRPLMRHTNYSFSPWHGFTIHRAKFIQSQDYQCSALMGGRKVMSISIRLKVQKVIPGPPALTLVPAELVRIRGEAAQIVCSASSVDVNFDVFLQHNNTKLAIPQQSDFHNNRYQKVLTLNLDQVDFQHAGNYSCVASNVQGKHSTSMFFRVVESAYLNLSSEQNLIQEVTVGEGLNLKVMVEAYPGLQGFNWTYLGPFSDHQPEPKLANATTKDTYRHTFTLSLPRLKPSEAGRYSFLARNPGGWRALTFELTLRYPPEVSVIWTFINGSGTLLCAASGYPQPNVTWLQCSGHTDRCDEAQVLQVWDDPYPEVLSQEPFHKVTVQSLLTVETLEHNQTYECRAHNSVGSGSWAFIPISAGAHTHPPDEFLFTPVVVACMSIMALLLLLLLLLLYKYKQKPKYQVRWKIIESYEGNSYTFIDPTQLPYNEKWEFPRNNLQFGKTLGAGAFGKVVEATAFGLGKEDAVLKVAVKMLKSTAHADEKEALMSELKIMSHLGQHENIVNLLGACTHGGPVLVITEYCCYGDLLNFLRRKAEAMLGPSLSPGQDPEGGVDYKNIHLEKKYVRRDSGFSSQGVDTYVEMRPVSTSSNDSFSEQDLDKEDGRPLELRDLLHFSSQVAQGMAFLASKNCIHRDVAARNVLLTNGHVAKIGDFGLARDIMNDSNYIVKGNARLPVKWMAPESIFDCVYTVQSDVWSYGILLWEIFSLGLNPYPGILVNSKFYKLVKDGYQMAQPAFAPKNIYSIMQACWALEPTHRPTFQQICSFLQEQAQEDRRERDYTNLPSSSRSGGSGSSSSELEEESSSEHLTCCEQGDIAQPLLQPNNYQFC

As for `COc1ncnc2[nH]cc(Cc3ccc(Nc4ccc(Cl)nc4)nc3F)c12` [Compound P-4003, (6-Chloro-pyridin-3-yl)-[6-fluoro-5-(4-methoxy-7H-pyrrolo[2,3-d]pyrimidin-5-ylmethyl)-pyridin-2-yl]-amine], the IC50 (in general, the concentration at which inhibition is half-maximal) on Fms kinase is less than 100 nM; on Flt-3 kinase, less than 1000 nM.

For the compound `COc1ncnc2[nH]cc(Cc3ccc(Nc4ccc(C5CC5)nc4)nc3F)c12` [Compound P-4004, (6-Cyclopropyl-pyridin-3-yl)-[6-fluoro-5-(4-methoxy-7H-pyrrolo[2,3-d]pyrimidin-5-ylmethyl)-pyridin-2-yl]-amine], the IC50 at Fms kinase was less than 100 nM; on Flt-3 kinase, less than 10 nM.

On to `CCOc1ccc(Nc2ccc(Cc3c[nH]c4ncnc(OC)c34)c(F)n2)cn1` [Compound P-4005, (6-Ethoxy-pyridin-3-yl)-[6-fluoro-5-(4-methoxy-7H-pyrrolo[2,3-d]pyrimidin-5-ylmethyl)-pyridin-2-yl]-amine], for which the values for the IC50 at Fms kinase and at Flt-3 kinase were less than 10 nM and less than 100 nM, respectively.

As to `CCOc1ccc(Nc2ccc(Cc3c[nH]c4ncnc(C)c34)c(F)n2)cn1` [Compound P-4006, (6-Ethoxy-pyridin-3-yl)-[6-fluoro-5-(4-methyl-7H-pyrrolo[2,3-d]pyrimidin-5-ylmethyl)-pyridin-2-yl]-amine], the figures for the IC50 on Fms kinase and at Flt-3 kinase were less than 10 nM and less than 100 nM, respectively.

`CCc1ccc(Nc2ccc(Cc3c[nH]c4ncnc(OC)c34)c(F)n2)cn1` [Compound P-4007, (6-Ethyl-pyridin-3-yl)-[6-fluoro-5-(4-methoxy-7H-pyrrolo[2,3-d]pyrimidin-5-ylmethyl)-pyridin-2-yl]-amine]: the IC50 is less than 10 nM at Fms kinase and less than 100 nM at Flt-3 kinase.

In the case of `CCOc1ccc(Nc2ccc(Cc3c[nH]c4ncnc(OCCOC)c34)c(F)n2)cn1` [Compound P-4008, (6-Ethoxy-pyridin-3-yl)-{6-fluoro-5-[4-(2-methoxy-ethoxy)-7H-pyrrolo[2,3-d]pyrimidin-5-ylmethyl]-pyridin-2-yl}-amine], the values for the IC50 on Fms kinase and at Flt-3 kinase were less than 10 nM and less than 100 nM, respectively.

On to `CCc1ccc(Nc2ccc(Cc3c[nH]c4ncnc(C)c34)c(F)n2)cn1` [Compound P-4009, (6-Ethyl-pyridin-3-yl)-[6-fluoro-5-(4-methyl-7H-pyrrolo[2,3-d]pyrimidin-5-ylmethyl)-pyridin-2-yl]-amine], for which the values for the IC50 on Fms kinase and on Flt-3 kinase were less than 10 nM and less than 100 nM, respectively.

`COc1ncnc2[nH]cc(Cc3ccc(Nc4ccc(C)nc4)nc3F)c12` [Compound P-4010, [6-Fluoro-5-(4-methoxy-7H-pyrrolo[2,3-d]pyrimidin-5-ylmethyl)-pyridin-2-yl]-(6-methyl-pyridin-3-yl)-amine]: the IC50 at Fms kinase is less than 10 nM; at Flt-3 kinase it was less than 1000 nM.

Turning to `CCn1cc(Nc2ccc(Cc3c[nH]c4ncnc(OC)c34)c(F)n2)cn1` [Compound P-4011, (1-Ethyl-1H-pyrazol-4-yl)-[6-fluoro-5-(4-methoxy-7H-pyrrolo[2,3-d]pyrimidin-5-ylmethyl)-pyridin-2-yl]-amine], the IC50 on Fms kinase was less than 10 nM; at Flt-3 kinase it was less than 1000 nM.

Consider `CCOc1ncnc2[nH]cc(Cc3ccc(Nc4cnn(CC)c4)nc3F)c12` [Compound P-4012, [5-(4-Ethoxy-7H-pyrrolo[2,3-d]pyrimidin-5-ylmethyl)-6-fluoro-pyridin-2-yl]-(1-ethyl-1H-pyrazol-4-yl)-amine], for which the IC50 on Fms kinase is less than 10 nM; at Flt-3 kinase, less than 1000 nM.

For `CCn1cc(Nc2ccc(Cc3c[nH]c4ncnc(C)c34)c(F)n2)cn1` [Compound P-4013, (1-Ethyl-1H-pyrazol-4-yl)-[6-fluoro-5-(4-methyl-7H-pyrrolo[2,3-d]pyrimidin-5-ylmethyl)-pyridin-2-yl]-amine], the results for the IC50 at Fms kinase and at Flt-3 kinase were less than 10 nM and greater than 1000 nM, respectively.

On to `CCn1cc(Nc2ccc(Cc3c[nH]c4ncnc(OCCOC)c34)c(F)n2)cn1` [Compound P-4014, (1-Ethyl-1H-pyrazol-4-yl)-{6-fluoro-5-[4-(2-methoxy-ethoxy)-7H-pyrrolo[2,3-d]pyrimidin-5-ylmethyl]-pyridin-2-yl}-amine], for which the IC50 on Fms kinase was less than 10 nM; at Flt-3 kinase it was less than 1000 nM.

As to `COCCOc1ncnc2[nH]cc(Cc3ccc(Nc4ccc(C)nc4)nc3F)c12` [Compound P-4015, {6-Fluoro-5-[4-(2-methoxy-ethoxy)-7H-pyrrolo[2,3-d]pyrimidin-5-ylmethyl]-pyridin-2-yl}-(6-methyl-pyridin-3-yl)-amine], the IC50 at Fms kinase was less than 100 nM; at Flt-3 kinase it was greater than 1000 nM.

`CCc1ccc(Nc2ccc(Cc3c[nH]c4ncnc(OCCOC)c34)c(F)n2)cn1` [Compound P-4016, (6-Ethyl-pyridin-3-yl)-{6-fluoro-5-[4-(2-methoxy-ethoxy)-7H-pyrrolo[2,3-d]pyrimidin-5-ylmethyl]-pyridin-2-yl}-amine]: the IC50 on Fms kinase and on Flt-3 kinase was less than 10 nM in each case.

As to `CCOc1ncnc2[nH]cc(Cc3ccc(Nc4ccc(C)nc4)nc3F)c12` [Compound P-4017, [5-(4-Ethoxy-7H-pyrrolo[2,3-d]pyrimidin-5-ylmethyl)-6-fluoro-pyridin-2-yl]-(6-methyl-pyridin-3-yl)-amine], the IC50 at Fms kinase was less than 10 nM; at Flt-3 kinase, less than 100 nM.

Consider `CCOc1ncnc2[nH]cc(Cc3ccc(Nc4ccc(OC)nc4)nc3F)c12` [Compound P-4018, [5-(4-Ethoxy-7H-pyrrolo[2,3-d]pyrimidin-5-ylmethyl)-6-fluoro-pyridin-2-yl]-(6-methoxy-pyridin-3-yl)-amine], for which the IC50 is less than 10 nM on Fms kinase and less than 100 nM at Flt-3 kinase.

In the case of `COCCOc1ncnc2[nH]cc(Cc3ccc(Nc4ccc(OC)nc4)nc3F)c12` [Compound P-4019, {6-Fluoro-5-[4-(2-methoxy-ethoxy)-7H-pyrrolo[2,3-d]pyrimidin-5-ylmethyl]-pyridin-2-yl}-(6-methoxy-pyridin-3-yl)-amine], the IC50 at Fms kinase is less than 10 nM; on Flt-3 kinase, less than 100 nM.

As to `CCOc1ncnc2[nH]cc(Cc3ccc(Nc4ccc(Br)nc4)nc3F)c12` [Compound P-4020, (6-Bromo-pyridin-3-yl)-[5-(4-ethoxy-7H-pyrrolo[2,3-d]pyrimidin-5-ylmethyl)-6-fluoro-pyridin-2-yl]-amine], the IC50 was less than 10 nM at Fms kinase and less than 100 nM at Flt-3 kinase.

For `CCOc1ncnc2[nH]cc(Cc3ccc(Nc4cccnc4)nc3F)c12` [Compound P-4021, [5-(4-Ethoxy-7H-pyrrolo[2,3-d]pyrimidin-5-ylmethyl)-6-fluoro-pyridin-2-yl]-pyridin-3-yl-amine], the half-maximal inhibitory concentration (IC50) is less than 100 nM at Fms kinase and greater than 1000 nM on Flt-3 kinase.

As for `COc1ccc(Nc2ccc(C(=O)c3c[nH]c4ncnc(C5CC5)c34)c(F)n2)cn1` [Compound P-4022, (4-cyclopropyl-7H-pyrrolo[2,3-d]pyrimidin-5-yl)-[2-fluoro-6-(6-methoxy-pyridin-3-ylamino)-pyridin-3-yl]-methanone], the IC50 at Fms kinase and at Flt-3 kinase was less than 100 nM in each case.

Consider `COc1ccc(Nc2ccc(Cc3c[nH]c4ncnc(C5CC5)c34)c(F)n2)cn1` [Compound P-4023, [5-(4-cyclopropyl-7H-pyrrolo[2,3-d]pyrimidin-5-ylmethyl)-6-fluoro-pyridin-2-yl]-(6-methoxy-pyridin-3-yl)-amine], for which the IC50 on Fms kinase is less than 10 nM; at Flt-3 kinase it was less than 1000 nM.
